This passage reports IC50, GI50 and Ki results from paper PMC3086806, “Mining a Cathepsin Inhibitor Library for New Antiparasitic Drug Leads” (PLoS Neglected Tropical Diseases, 2011).

The target of one experiment is T1, falcipain-2 (Plasmodium falciparum, UniProt Q8I6U4).
T1 construct: made in house
T1 sequence (Q8I6U4 244-484): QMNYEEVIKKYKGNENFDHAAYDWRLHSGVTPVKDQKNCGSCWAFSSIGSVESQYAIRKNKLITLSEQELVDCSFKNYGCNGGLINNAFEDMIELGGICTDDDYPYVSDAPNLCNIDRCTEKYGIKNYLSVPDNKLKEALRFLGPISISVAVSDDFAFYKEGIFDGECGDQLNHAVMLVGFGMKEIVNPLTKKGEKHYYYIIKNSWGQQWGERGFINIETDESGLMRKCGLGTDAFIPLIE
Nature of the experiment: Falcipain-2 protease inhibition assay (Z-Leu-Arg-AMC). In kind it is biochemical. As for the experimental part: (§1) Recombinant cruzain, rhodesain, TbCatB, falcipain-2 and falcipain-3 were expressed as described previously, [39], [40], [41], [42]. Inhibitor stock solutions were prepared in DMSO and screened at 0.1 µM for cruzain and rhodesain, 1 µM for TbCatB and 50 nM for falcipain-3 (0.5% DMSO in assay). […] Protease inhibition assays for cruzain and rhodesain were carried out in 96 well plate format as described previously. Cruzain (4 nM), rhodesain (4 nM) or TbCatB (258 nM) was incubated with test compound in 100 mM sodium acetate, pH 5.5, containing 5 mM DTT and 0.01% Triton X-100 (buffer A), for 5 min at room temperature (the higher concentration of TbCatB was required due to its lower intrinsic activity against the fluorogenic substrate). Then buffer A containing Z-Phe-Arg-AMC (Bachem) was added to enzyme-compound mixture to give 10 µM substrate in a final assay volume of 200 µL. The rate of free AMC release was measured at excitation and emission wavelengths of 355 and 460 nm, respectively, with a microtiter plate spectrofluorimeter (SpectraMax M5, Molecular Devices) for 3 min. Percentage inhibition of test compound was calculated relative to the DMSO control (0% inhibition control). IC50 values were determined with Prism 4 software (GraphPad, San Diego, CA) using sigmoidal dose-response variable slope model.
Protease inhibition assays for falcipain-2 and falcipain-3 were carried out in 96 well plate format as described previously, [43] with modification for end-point readout. Falcipain-2 (21 nM) or falcipain-3 (78 nM) was incubated with test compound for 10 min at room temperature in 200 mM sodium acetate, pH 6, 10 mM DTT and 3.6% glycerol and 0.01% Triton X-100 (buffer B). Then buffer B containing Z-Leu-Arg-AMC (Bachem) was added to the enzyme-compound mixture to give 25 µM substrate in a final assay volume of 200 µL. After 15 min, 50 µL of 5 M acetic acid was added to each well to stop the reaction. End-point fluorescence was read in a spectrofluorimeter as above. The 0% inhibition control wells contained DMSO while 100% inhibition control wells contained 50 µM E-64 (Sigma). Percentage inhibition of test compound was calculated relative to the controls and IC50 curve fitting was performed with Prism 4 software as above.

Another experiment addresses T2, cruzain (Trypanosoma cruzi, UniProt P25779).
T2 construct: made in house
Put plainly: Cruzain protease inhibition assay (Z-Phe-Arg-AMC). In kind it is biochemical. As to the method:
as §1

The subject of experiment [1] is W2-strain P. falciparum parasites. Nature of the experiment: P. falciparum growth inhibition assay. In kind it is cell-based, Plasmodium falciparum. The following applies: Plasmodium falciparum; cultured W2 strain, 48 hours; read-out: GI50 P. falc. W2. As for the experimental part: The growth inhibition assay for P. falciparum was conducted as described previously. W2-strain P. falciparum parasites (1% parasitemia, 2% hematocrit) were cultured at 37°C in human red blood cells under the atmosphere of 3% O2, 5% CO2 balance N2 in 0.2 mL of per well in medium RPMI-1640 supplemented with 10% human serum in duplicate 96-well flat bottom culture plates in the presence of inhibitors. Tested compounds were serially diluted 1∶3 in the range 10,000 – 4.6 nM, with maximum DMSO concentration of 0.1%. Following 48 hours of incubation, the medium was removed and the cells were fixed in 2% formaldehyde in PBS. Parasite growth was evaluated by flow cytometry on a FACsort (Becton Dickinson) equipped with AMS-1 loader (Cytek Development) after staining with 1 nM DNA dye YOYO-1(Molecular Probes) in 100 mM NH4Cl, 0.8% NaCl. Parasitemias were determined from dot plots (forward scatter vs. fluorescence) using […] software (Becton Dickinson). IC50 values for growth inhibition were determined from plots of percentage control parasitemia over inhibitor concentration using GraphPad Prism software.

For another experiment, the target named is human cathepsin L. Details: method as in data provided by Celera Genomics. The following applies: historical data; ref data provided by Celera Genomics; read-out: Ki catL; cited from earlier work.
For experiment [2], the system named is intracellular T. cruzi (CA-I/72) in BESM cells. Put plainly: T. cruzi amastigote growth inhibition assay. The experiment is classed as cell-based. Conditions: Trypanosoma cruzi; infected BESM cells, 72 hours. As for the experimental part: The growth inhibition assay for the intracellular T. cruzi was conducted in 96-well plate format as described previously. Briefly, bovine embryo skeletal muscle (BESM) cells (2×10^3/well), seeded overnight, were infected with CA-I/72 T. cruzi trypomastigotes (2×10^3/well). Sixteen hours post-infection, test compounds (serial dilution concentrations starting from 20 µM) were added and assay plates were incubated for an additional 72 hours at 37°C with 5% CO2. Cells were then washed once in PBS, fixed with 4% paraformaldehyde and stained with DNA fluorescent dye DAPI (4′ 6-diamidino-2-phenylindole). The assay plates were then imaged in the IN Cell Analyzer 2000 (GE Healthcare) with the excitation and emission filters set of 350 nm and 460 nm, respectively, to detect DAPI signals. The feature extraction module in IN Cell Developer Toolbox 1.7 software was used to count host nuclei and parasite kinetoplasts by size difference.

T2 sequence (P25779 123-467): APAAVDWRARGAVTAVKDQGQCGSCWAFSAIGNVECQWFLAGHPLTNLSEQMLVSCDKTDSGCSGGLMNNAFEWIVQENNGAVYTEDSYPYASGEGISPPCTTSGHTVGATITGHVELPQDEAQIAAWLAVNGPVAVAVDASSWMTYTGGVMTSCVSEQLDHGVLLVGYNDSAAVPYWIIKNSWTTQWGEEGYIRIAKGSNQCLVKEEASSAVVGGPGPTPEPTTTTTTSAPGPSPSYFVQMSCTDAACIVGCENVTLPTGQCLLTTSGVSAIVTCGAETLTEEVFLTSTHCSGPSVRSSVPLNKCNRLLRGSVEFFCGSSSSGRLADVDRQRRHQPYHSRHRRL

As to `CCCCC(NC(=O)C(Cc1ccccc1)NC(=O)N1CCOCC1)C(=O)c1nc2ccccc2o1` (stereo not shown) [Compound 19b], the concentration for half-maximal inhibition (IC50) (usually the concentration needed to halve the response being measured) against falcipain-2 was 4.4 nM; at cruzain it was 4 nM. The GI50 (usually the concentration at which growth is held to half of that of the control) was determined as 2900 nM in experiment [1] and 10900 nM in experiment [2]. Further, the Ki – broadly, a dissociation constant, usually derived from enzyme kinetics or from competition with a known ligand – at human cathepsin L was 180 nM.

`CCCCC(NC(=O)C(CC(C)C)NC(=O)N1CCOCC1)C(=O)c1nc2ccccc2o1` (stereo not shown) [Compound 19a]: the results for the 50% inhibitory concentration (IC50) at falcipain-2 and on cruzain were 2.1 nM and 1 nM, respectively. Further, the GI50 in experiment [1] came out at 1200 nM; in experiment [2], 20000 nM. For the same compound, at human cathepsin L, the Ki is 26 nM.
